In general, % Inhibition refers to how much of the control response was suppressed.

This note sets out measurements from patent US4193996A, “Spiro-quinolone hydantoins” (Pfizer Inc., priority 1979, dated 1980).

For experiment [1], the system named is sorbitol accumulation in the sciatic nerve. Put plainly: Inhibition of sorbitol accumulation in the sciatic nerve of streptozotocinized (diabetic) rats. The settings on record: oral, at 4, 8 and 24 hours after streptozotocin, measured 27 hours after induction of diabetes. It is filed as in vivo, rat. Here is the method:
The compounds of Examples 3 and 4 were tested for their ability to reduce or inhibit sorbitol accumulation in the sciatic nerve of streptozotocinized (i.e. diabetic) rats by the procedure essentially described in U.S. Pat. No. 3,821,383. In the present study, the amount of sorbitol accumulation in the sciatic nerves was measured 27 hours after induction of diabetes. The compounds were administered orally at the dose levels indicated at 4, 8 and 24 hours following the administration of streptozotocin. The results obtained in this manner are presented below in terms of percent inhibition (%) afforded by the test compound as compared to the case where no compound was administered (i.e. the untreated animal, where sorbitol levels normally rise from approximately […]. tissue in the 27-hour test period): […]

A further experiment deals with aldose reductase. Put plainly: Inhibition of aldose reductase enzyme activity (partially purified enzyme from calf lens). It is filed as biochemical. The procedure:
The compounds of Examples 3 and 4 were tested for their ability to reduce or inhibit aldose reductase enzyme activity, following the procedure described in U.S. Pat. No. 3,821,383 and based on the procedure of Hayman et. al., Journal of Biological Chemistry, 240, 877 (1965). The substrate employed was partially purified aldose reductase enzyme obtained from calf lens.

The structures appear in SMILES notation.

For the compound `O=C1NC(=O)C2(CCn3c(=O)ccc4cccc2c43)N1` (stereo not shown) [Example 3, Spiro[2,3-dihydro-1H, 5H-benzo[ij]quinolizin [1,4']imidazolidin]-2', 5, 4'-trione], the “% Inhibition at 1.5 mg/kg (sorbitol accumulation in the sciatic nerve vs untreated)” value in experiment [1] amounted to 27%. Moreover, the “% Inhibition at 10^-6 m (inhibition of aldose reductase enzyme activity)” value with aldose reductase is 86%.

For the compound `O=C1NC(=O)C2(CCn3c(=O)ccc4cc(Cl)cc2c43)N1` (stereo not shown) [Example 4, 10-Chloro-spiro[2,3-dihydro-1H, 5H-benzo[ij]quinolizin[1,4']imidazolidin]-2', 5, 5'-trione], the “% Inhibition at 1.5 mg/kg (sorbitol accumulation in the sciatic nerve vs untreated)” value in experiment [1] was 32%. Besides, the “% Inhibition at 10^-6 m (inhibition of aldose reductase enzyme activity)” value in the experiment on aldose reductase is on record as 94%.
